In PMC5700102, “Primer synthesis by a eukaryotic-like archaeal primase is independent of its Fe-S cluster” (Nature Communications, 2017):

Target: T1, PriSLX (Saccharolobus solfataricus, UniProt Q97Z83+Q97ZS7)
T1 construct: gene priS; heterotrimer co-expressed in E. coli Rosetta2(DE3) from pETDuet PriL/PriS and pRSFDuet PriX; no tag mentioned; PriL 307 and PriX 154 residues; with DNA primase large subunit PriL
T1 sequence (Q97Z83 1-330): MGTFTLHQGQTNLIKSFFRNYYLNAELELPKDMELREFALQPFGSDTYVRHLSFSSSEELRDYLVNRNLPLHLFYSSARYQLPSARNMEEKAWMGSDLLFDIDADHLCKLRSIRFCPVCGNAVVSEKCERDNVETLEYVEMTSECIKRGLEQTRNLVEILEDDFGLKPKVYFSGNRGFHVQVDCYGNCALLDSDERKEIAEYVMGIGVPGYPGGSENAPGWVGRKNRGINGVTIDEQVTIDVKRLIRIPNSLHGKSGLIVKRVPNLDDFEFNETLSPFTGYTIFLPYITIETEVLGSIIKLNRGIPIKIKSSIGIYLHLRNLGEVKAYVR
T1 sequence (Q97ZS7 1-154): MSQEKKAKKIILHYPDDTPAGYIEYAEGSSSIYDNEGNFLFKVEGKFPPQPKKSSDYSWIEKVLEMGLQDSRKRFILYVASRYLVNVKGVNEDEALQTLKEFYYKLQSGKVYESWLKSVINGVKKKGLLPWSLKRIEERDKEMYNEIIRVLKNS
T1 sequence (Q9UWW1 1-307 partner): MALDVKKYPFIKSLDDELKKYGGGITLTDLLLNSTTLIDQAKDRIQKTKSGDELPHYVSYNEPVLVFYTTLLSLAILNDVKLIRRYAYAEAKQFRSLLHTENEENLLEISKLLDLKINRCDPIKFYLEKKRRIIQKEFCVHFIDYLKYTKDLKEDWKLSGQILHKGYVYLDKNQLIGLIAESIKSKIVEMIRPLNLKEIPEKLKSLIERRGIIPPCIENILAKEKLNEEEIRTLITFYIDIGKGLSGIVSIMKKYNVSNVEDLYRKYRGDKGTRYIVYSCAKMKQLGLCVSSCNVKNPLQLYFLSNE
Assay: X-ray crystal structure, […] Å
Assay type: binding
Conditions: two molecules bound: PriS active site (elongation site) and PriX initiation site at the PriX-PriS interface; MnCl2

Compound: Nc1ncnc2c1ncn2[C@@H]1O[C@H](COP(=O)(O)CP(=O)(O)OP(=O)(O)O)[C@@H](O)[C@H]1O [AMPCPP]
- X-ray crystal structure, 2.9 Å: The first AMPCPP was bound in the active site of PriS
